Data on 18 compounds can be found in patent US3959300A, “Novel indolobenzazepine derivatives, useful as tranquilizers” (priority 1974, dated 1976).

Assay type in all cases: in vivo
In one experiment the test system is locomotor activity. The experiment is described as follows: Mouse Screen (decrease in locomotor activity). The following applies: po, mouse, lowest dose producing obvious decrease in locomotor activity; for minimal effective dose: read-out: Screen (mouse) MED. From the text:
(§1) Results given in: mg/kg po/mouse
Mouse Screen: The minimal effective dose (MED) is the lowest oral dose producing an obvious decrease in locomotor activity, using observational techniques. Groups of 3 mice are given decreasing oral doses at 0.5 log intervals (300, 100, 30 . . . etc.) until no behavioral effects are evident. Decrease of locomotor activity is indicative of general central nervous system depressant activity.

Experiment [1] has as its system amphetamine hyperactivity. The experiment is described as follows: Mouse Anti-Amphetamine Activity (A.A.). The following applies: po, mouse, d-amphetamine sulfate 5 mg/kg sc 1 hour after compound, 60 minutes recording; for ED50: read-out: A.A. (mouse) ED50. On the procedure:
as §1
Mouse Anti-Amphetamine Activity: Groups of 5 mice are given d-amphetamine sulfate 5 mg/kg sc 1 hour after oral administration of graded doses of test compound. The mice are placed in photocell activity units immediately after amphetamine administration and locomotor activity is recorded for 60 minutes. The ED50 is calculated as the dose causing a 50% reduction in locomotor activity relative to the activity of the amphetamine-treated control mice. Amphetamine antagonism at non-toxic doses appears to correlate with major tranquilizer activity in man.

Experiment [2] deals with Conditioned Avoidance Response. The experiment is described as follows: Mouse Conditioned Avoidance Response (C.A.R.). The following applies: po, mouse, tested 1, 2, and 4 hours after administration; for ED50: read-out: C.A.R. (mouse) ED50. The method, then: (§2) Results given in: mg/kg po/mouse mg/kg po/rat
(§3) Mouse and Rat Conditioned Avoidance Response: Mice and rats are trained to jump out of a pit onto a ledge to avoid shock when presented with a light and sound conditioned stimulus. The animals are tested 1, 2, and 4 hours after administration of the test compound. Three to 4 dose levels and groups of 4-8 animals/dose are used. The ED50 is the dose producing a block of the C.A.R. in 50% of the animals. Blocking of the C.A.R. at non-toxic doses appears to correlate with major tranquilizer activity in man.

For another experiment, the system named is taming. The experiment is described as follows: Rhesus Monkey Taming Effects. The following applies: po, rhesus monkey; for minimal effective dose: Macaca mulatta, read-out: Taming (monkey) MED. On the procedure: Results given in: mg/kg po/monkey
Rhesus Monkey Taming Effects: Compounds are administered orally to groups of six rhesus monkeys. The behavior of the animals is then evaluated by observational means. Taming effects are determined by the ability of the observer to approach and touch the monkey. Compounds with major tranquilizer activity in man can produce a state of passive tameness in the rhesus monkey wherein it can be touched without provoking any of the threatening or aggressive behavior seen in the normal animal. The MED is the minimal oral dose at which some taming effect can be observed.

The subject of experiment [3] is Conditioned Avoidance Response. The experiment is described as follows: Rat Conditioned Avoidance Response (C.A.R.). The conditions noted are these: po, rat, tested 1, 2, and 4 hours after administration. On the procedure:
as §2, §3

Experiment [4] relates to Conditioned Avoidance Response. The experiment is described as follows: Dog Conditioned Avoidance Response (C.A.R.). The following applies: po, dog, 1, 2, and 4 hours after administration; for ED50: Canis lupus familiaris, read-out: C.A.R. (dog) ED50. The method, then:
Results given in: mg/kg po/dog
Dog Conditioned Avoidance Response: Dogs are trained to raise a forelimb when presented with a conditioned stimulus (light) in order to avoid an electric shock. Blocks of 10 trials are given to groups of four dogs during a pretreatment period and at 1, 2, and 4 hours after oral administration of test compound. The ED50 values are calculated as the dose causing 50% of the animals to show five or more incorrect responses. Blocking of the C.A.R. at non-toxic doses appears to correlate with major tranquilizer activity in man.

The test system of experiment [5] is approach-avoidance ("conflict") situation. The experiment is described as follows: Rat Conflict (Approach-Avoidance) Test. The following applies: for Conflict (rat) MED / minimal effective dose: po, reexposed after 1 or 2 hours, rat; for minimal effective dose: read-out: Conflict (rat) MED. The method, then: Results given in: mg/kg po/rat
Rat Conflict (Approach-Avoidance) Test: Food deprived rats are trained to pass from one compartment to an adjacent one to obtain food. The training consists of three exposures to the test situation on day one of the experiment. The rats are given limited (1-2 hr) free access to food in their home cages on day one and are then food deprived for at least 18 hours. On day two of the experiment, the rats are given a control exposure to the test situation followed by a second exposure after 1/2 to 1 hour in which they are shocked after crossing and eating. Groups of 6-8 rats are then dosed orally with solvent or test compound and then reexposed to the test situation after 1 or 2 hours.
This effect is dose-related (and the MED is the minimum dose at which this effect is obtained); rats dosed with solvent only consistently show a high level of fear as evidenced by decreased mobility and absence of feeding when placed in the test situation after receiving a shock.

Regarding “1,2,3,4,8,9-hexahydro-3-[(4-methylbicyclo[2.2.2]oct-1-yl)methyl]pyrido[4',3':2,3]indolo[1,7-ab][1]benzazepine hydrochloride [Example 15]”, in the experiment on locomotor activity, the “Screen (mouse) MED” value was 10 to 30 mg/kg. Moreover, in experiment [1], the “A.A. (mouse) ED50” value lay in the range of 3 to 10 mg/kg. Also, in experiment [2], the “C.A.R. (mouse) ED50” value is 10 to 30 mg/kg. Moreover, in the experiment on taming, the “Taming (monkey) MED” value is above 10 mg/kg.
Turning to “1,2,3,4,8,9-hexahydro-3-[(4-methylbicyclo[2.2.2]oct-2-en-1-yl)methyl]pyrido[4', 3':2,3]indolo[1,7-ab][1]benzazepine hydrochloride [Example 16]”, in the experiment with locomotor activity, the “Screen (mouse) MED” value was 100 to 300 mg/kg. Also, in experiment [1], the “A.A. (mouse) ED50” value worked out at 60 mg/kg. The “C.A.R. (mouse) ED50” value in experiment [2] was 30 to 60 mg/kg. In addition, the “C.A.R. (rat) ED50” value in experiment [3] is listed as 30 mg/kg. Moreover, the “C.A.R. (dog) ED50” value in experiment [4] was above 10 mg/kg. Besides, the “Taming (monkey) MED” value in the experiment with taming is 20 mg/kg. Further, the “Conflict (rat) MED” value in experiment [5] was 10 to 20 mg/kg.
Consider “1,2,3,4,8,9-hexahydro-3-[(trans-2-methylcyclopropyl)methyl]pyrido[4',3':2,3]indolo[1,7-ab][1]benzazepine hydrochloride [No. 4]”, for which the “Screen (mouse) MED” value with locomotor activity lay in the range of 10 to 30 mg/kg. In experiment [1], the “A.A. (mouse) ED50” value stood at 6 mg/kg. In addition, the “C.A.R. (mouse) ED50” value in experiment [2] is reported as 20 mg/kg. Further, the “Taming (monkey) MED” value in the experiment on taming was in the range of 3 to 10 mg/kg. Further, the “Conflict (rat) MED” value in experiment [5] is given as above 40 mg/kg.
With “1,2,3,4,8,9-hexahydropyrido[4', 3':2,3] indolo[1,7-ab][1]benzazepine [Example 1]”, in the experiment with locomotor activity, the “Screen (mouse) MED” value is 10 to 30 mg/kg. In experiment [1], the “A.A. (mouse) ED50” value came to 10 mg/kg. For the same compound, the “C.A.R. (mouse) ED50” value in experiment [2] is above 40 mg/kg. For the same compound, the “C.A.R. (rat) ED50” value in experiment [3] is above 40 mg/kg. Further, the “Taming (monkey) MED” value in the experiment on taming lay in the range of 20 to 30 mg/kg. Further, the “Conflict (rat) MED” value in experiment [5] is above 40 mg/kg.
For “3-(1-adamantylmethyl)-1,2,3,4,8,9-hexahydropyrido[4',3':2,3]indolo[1,7-ab][1]benzazepine hydrochloride [No. 11]”, the “Screen (mouse) MED” value in the experiment with locomotor activity was 3 to 10 mg/kg. Further, the “A.A. (mouse) ED50” value in experiment [1] was 1 mg/kg. The “C.A.R. (mouse) ED50” value in experiment [2] was in the range of 1 to 3 mg/kg. The “C.A.R. (rat) ED50” value in experiment [3] stood at 6 mg/kg. Also, the “Taming (monkey) MED” value with taming lay within 1 to 3 mg/kg. The “Conflict (rat) MED” value in experiment [5] is reported as above 40 mg/kg.
As to “3-(1-cyclopropylethyl)-1,2,3,4,8,9-hexahydropyrido[4',3':2,3]indolo[1,7-ab][1]benzazepine hydrochloride [Example 20]”, the “Screen (mouse) MED” value in the experiment on locomotor activity was 30 to 100 mg/kg.
In the case of “3-(2-adamantylmethyl)-1,2,3,4,8,9-hexahydropyrido[4',3':2,3]indolo[1,7-ab][1]benzazepine hydrochloride [Example 11]”, the “Screen (mouse) MED” value with locomotor activity lay within 100 to 300 mg/kg. Further, in experiment [1], the “A.A. (mouse) ED50” value is above 100 mg/kg. The “C.A.R. (mouse) ED50” value in experiment [2] is listed as 30 mg/kg. The “C.A.R. (rat) ED50” value in experiment [3] was above 40 mg/kg.
Consider “3-(2-butynyl)-1,2,3,4,8,9-hexahydropyrido[4',3':2,3]indolo[1,7-ab][1]benzazepine hydrochloride [No. 20]”, for which the “Screen (mouse) MED” value in the experiment on locomotor activity was 10 to 30 mg/kg. For the same compound, the “A.A. (mouse) ED50” value in experiment [1] is given as 6 mg/kg. Moreover, the “C.A.R. (mouse) ED50” value in experiment [2] was in the range of 10 to 30 mg/kg. Further, the “C.A.R. (dog) ED50” value in experiment [4] is given as above 40 mg/kg. Besides, in the experiment with taming, the “Taming (monkey) MED” value fell in the range of 1 to 3 mg/kg. For the same compound, the “Conflict (rat) MED” value in experiment [5] is given as above 40 mg/kg.
Take “3-(exo-7-norcarylmethyl)-1,2,3,4,8,9-hexahydropyrido[4',3':2,3]indolo[1,7- ab][1]benzazepine hydrochloride [No. 10]”: the “Screen (mouse) MED” value in the experiment on locomotor activity lay in the range of 10 to 30 mg/kg. For the same compound, the “A.A. (mouse) ED50” value in experiment [1] was in the range of 3 to 10 mg/kg. In addition, the “C.A.R. (mouse) ED50” value in experiment [2] fell in the range of 10 to 30 mg/kg. Also, the “Taming (monkey) MED” value in the experiment with taming was 10 mg/kg.
On to “3-[(2,3-dimethyl-2-cyclopropen-1-yl)methyl]-1,2,3,4,8,9-hexahydropyrido[4',3':2,3]indolo[1,7-ab][1]benzazepine hydrochloride [No. 12]”, for which, in the experiment on locomotor activity, the “Screen (mouse) MED” value was 10 to 30 mg/kg.
With “3-[(3-cyclohexen-1-yl)methyl]-1,2,3,4,8,9-hexahydropyrido[4',3':2,3]indolo[1,7-ab][1]benzazepine hydrochloride [No. 9]”, in the experiment on locomotor activity, the “Screen (mouse) MED” value lay in the range of 3 to 10 mg/kg. For the same compound, in experiment [1], the “A.A. (mouse) ED50” value stood at 5 mg/kg.
With “3-[(cis,cis-2,3-dimethylcyclopropyl)methyl]-1,2,3,4,8,9-hexahydropyrido[4',3':2,3]indolo[1,7-ab][1]benzazepine hydrochloride [No. 14]”, the “Screen (mouse) MED” value in the experiment on locomotor activity fell in the range of 10 to 30 mg/kg. The “A.A. (mouse) ED50” value in experiment [1] turned out to be 20 mg/kg. For the same compound, the “C.A.R. (mouse) ED50” value in experiment [2] was 20 mg/kg. In addition, in the experiment with taming, the “Taming (monkey) MED” value is above 20 mg/kg.
On to “3-[cis-1,6-dimethyl-endo-3-norcaren-7-yl)methyl]-1,2,3,4,8,9-hexahydropyrido[4',3':2,3]indolo[1,7-ab][1]benzazepine [No. 13]”, for which the “Screen (mouse) MED” value in the experiment on locomotor activity lay in the range of 1 to 3 mg/kg.
Regarding “3-isobutyl-1,2,3,4,8,9-hexahydropyrido-[4', 3':2,3]indolo[1,7-ab ][1]benzazepine hydrochloride [No. 1, reference compound]”, the “Screen (mouse) MED” value in the experiment with locomotor activity fell in the range of 100 to 300 mg/kg. Also, the “A.A. (mouse) ED50” value in experiment [1] is above 100 mg/kg. Also, the “C.A.R. (rat) ED50” value in experiment [3] is on record as above 40 mg/kg. The “Taming (monkey) MED” value in the experiment on taming is above 20 mg/kg. Further, the “Conflict (rat) MED” value in experiment [5] is above 40 mg/kg.
The term ED50 denotes the dose at which the effect has come halfway, by size or by number of responders. Take `CC1(CN2CCc3c(c4cccc5c4n3-c3ccccc3CC5)C2)CC1.Cl` [No. 5, 1,2,3,4,8,9-hexahydro-3-[(1-methylcyclopropyl)methyl]pyrido[4',3':2,3]indolo[1,7-ab][1]benzazepine hydrochloride]: the minimal effective dose with locomotor activity lay within 10 to 30 mg/kg; with taming, 10 to 30 mg/kg; in experiment [5] it was 10 to 20 mg/kg. For the same compound, the ED50 in experiment [1] lay within 3 to 10 mg/kg; in experiment [2], 10 to 30 mg/kg; in experiment [4] it was 10 to 20 mg/kg.
As for `Cl.c1ccc2c(c1)CCc1cccc3c4c(n-2c13)CCN(CC1CCC1)C4` [No. 6, 3-(cyclobutylmethyl)-1,2,3,4,8,9-hexahydropyrido[4',3':2,3]indolo[1,7-ab][1]benzazepine hydrochloride], the minimal effective dose in the experiment on locomotor activity is 10 to 30 mg/kg; with taming it was 1 to 3 mg/kg; in experiment [5], above 40 mg/kg. Besides, the ED50 in experiment [1] turned out to be 20 mg/kg; in experiment [2] it was 6 mg/kg; in experiment [3] (read-out: C.A.R. (rat) ED50), 4 mg/kg; in experiment [4], 20 mg/kg.
Consider `C#CCN1CCc2c(c3cccc4c3n2-c2ccccc2CC4)C1.Cl` [No. 19, 1,2,3,4,8,9-hexahydro-3-(2-propynyl)pyrido[4',3':2,3]indolo[1,7-ab][1]benzazepine hydrochloride], for which, in the experiment on locomotor activity, the minimal effective dose was in the range of 10 to 30 mg/kg. In addition, the ED50 in experiment [1] was 30 to 100 mg/kg; in experiment [2], 20 mg/kg.
Turning to `CCCC(C)(COC(N)=O)COC(N)=O` [meprobamate, reference compound], the “decreased fear in the test animals, in words” value in experiment [5] (rats cross to obtain food despite earlier shock, dose-related) is on record as “apparent decreased fear in the test animals”.
